{"source": "patent US20100298141A1", "about": "“SUBSTITUTED PYRIDINE N-OXIDE HERBICIDES” (E. I. DU PONT DE NEMOURS AND COMPANY, priority 2007, published 2010)", "key": {"rice": {"test_system": "rice", "experiment": "Test C flooded paddy test", "assay_type": "in vivo, Oryza sativa", "details": "Flood", "summary_of_the_method": "(§1)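 Pots were flooded to 3 cm above the soil surface at treatment, compound applied directly to the paddy water, and that depth held throughout. Plants were kept in a greenhouse for 13 to 15 days, then visually rated against untreated controls.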"}, "redroot pigweed": {"test_system": "redroot pigweed", "experiment": "Test A pre-/postemergence greenhouse test", "assay_type": "in vivo, Amaranthus retroflexus", "details": "for Pigweed plant response rating: 0 to 100 scale", "summary_of_the_method": "(§2)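 Greenhouse herbicide screen, pre- and postemergence in parallel. Soil: loam plus sand. Formulation: non-phytotoxic solvent mix with surfactant. Postemergence stage: one to two leaves, 2–10 cm height. Evaluation: visual injury, compared with untreated controls, about 10 days after treatment.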"}, "corn": {"test_system": "corn", "experiment": "Test A pre-/postemergence greenhouse test", "assay_type": "in vivo, Zea mays", "details": "for Corn plant response rating: 0 to 100 scale", "summary_of_the_method": "as §2"}, "bermudagrass": {"test_system": "bermudagrass", "experiment": "Test C pre-/postemergence test", "assay_type": "in vivo, Cynodon dactylon", "summary_of_the_method": "(§3)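 Compounds in a non-phytotoxic solvent with surfactant applied preemergence to seeded pots and, at the same time, postemergence to plants 2–18 cm tall (1- to 4-leaf stage). Paddy tests: pots flooded to 3 cm, compound applied into the water, depth held throughout.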"}, "wheat": {"test_system": "wheat", "experiment": "Test A pre-/postemergence greenhouse test", "assay_type": "in vivo, Triticum aestivum", "details": "for Wheat plant response rating: 0 to 100 scale", "summary_of_the_method": "as §2"}, "duck salad": {"test_system": "duck salad", "experiment": "Test C flooded paddy test", "assay_type": "in vivo, Heteranthera limosa", "details": "Flood", "summary_of_the_method": "as §1"}, "giant foxtail [1]": {"test_system": "giant foxtail", "experiment": "Test C pre-/postemergence test", "assay_type": "in vivo, Setaria faberii", "summary_of_the_method": "as §3"}, "velvetleaf [2]": {"test_system": "velvetleaf", "experiment": "Test C pre-/postemergence test", "assay_type": "in vivo, Abutilon theophrasti", "summary_of_the_method": "as §3"}, "Surinam grass": {"test_system": "Surinam grass", "experiment": "Test C pre-/postemergence test", "assay_type": "in vivo, Brachiaria decumbens", "summary_of_the_method": "as §3"}, "common ragweed": {"test_system": "common ragweed", "experiment": "Test C pre-/postemergence test", "assay_type": "in vivo, Ambrosia elation", "summary_of_the_method": "as §3"}, "eastern black nightshade": {"test_system": "eastern black nightshade", "experiment": "Test C pre-/postemergence test", "assay_type": "in vivo, Solanum ptycanthum", "summary_of_the_method": "as §3"}, "giant foxtail [3]": {"test_system": "giant foxtail", "experiment": "Test A pre-/postemergence greenhouse test", "assay_type": "in vivo, Setaria faberi", "details": "for Foxtail, Giant plant response rating: 0 to 100 scale", "summary_of_the_method": "as §2"}, "johnsongrass": {"test_system": "johnsongrass", "experiment": "Test C pre-/postemergence test", "assay_type": "in vivo, Sorghum halepense", "summary_of_the_method": "as §3"}, "lambsquarters": {"test_system": "lambsquarters", "experiment": "Test C pre-/postemergence test", "assay_type": "in vivo, Chenopodium album", "summary_of_the_method": "as §3"}, "barnyardgrass": {"test_system": "barnyardgrass", "experiment": "Test C flooded paddy test", "assay_type": "in vivo, Echinochloa crus-galli", "details": "Flood", "summary_of_the_method": "as §1"}, "wild oat": {"test_system": "wild oat", "experiment": "Test C pre-/postemergence test", "assay_type": "in vivo, Avena fatua", "summary_of_the_method": "as §3"}, "velvetleaf [4]": {"test_system": "velvetleaf", "experiment": "Test A pre-/postemergence greenhouse test", "assay_type": "in vivo, Abutilon theophrasti", "details": "for Velvetleaf plant response rating: 0 to 100 scale", "summary_of_the_method": "as §2"}, "Goosegrass": {"test_system": "Goosegrass", "experiment": "Test C pre-/postemergence test", "assay_type": "in vivo, Eleusin indica", "summary_of_the_method": "as §3"}, "[5]": {"details": "31 g ai/ha, scale 0 to 100 (0 no effect, 100 complete control)"}, "[6]": {"details": "62 g ai/ha, scale 0 to 100, 0 no effect, 100 complete control, 13 to 15 days"}, "[7]": {"details": "125 g ai/ha, scale 0 to 100, 0 no effect, 100 complete control, 13 to 15 days"}, "[8]": {"details": "250 g ai/ha, scale 0 to 100, 0 no effect, 100 complete control, 13 to 15 days"}, "[9]": {"details": "Postemergence, 125 g ai/ha, 0 is no effect, 100 is complete control"}, "[10]": {"details": "Postemergence, 500 g ai/ha, 0 is no effect, 100 is complete control"}, "[11]": {"details": "Preemergence, 125 g ai/ha, 0 no effect, 100 complete control"}, "[12]": {"details": "Preemergence, 500 g ai/ha, 0 to 100 scale where 0 is no effect and 100 is complete control"}, "[13]": {"details": "125 g ai/ha, preemergence, scale 0 (no effect) to 100 (complete control)"}, "[14]": {"details": "Preemergence, 31 g ai/ha, scale 0 to 100 (0 no effect, 100 complete control)"}, "[15]": {"details": "preemergence, 250 g ai/ha, scale 0 (no effect) to 100 (complete control)"}, "[16]": {"details": "62 g ai/ha, Preemergence, scale 0 to 100"}}}
{"smiles": "Cn1nc(C(F)(F)F)c(C[S+]([O-])c2cc(Br)cc[n+]2[O-])c1Cl", "note": "(racemic) [Compound 35]", "values": [{"measurement": "Plant response rating, Rice", "setting": "rice; [5]", "result": 0}, {"measurement": "Plant response rating, Rice", "setting": "rice; [6]", "result": 0}, {"measurement": "Plant response rating, Rice", "setting": "rice; [7]", "result": 0}, {"measurement": "Plant response rating, Rice", "setting": "rice; [8]", "result": 20}, {"measurement": "Pigweed plant response rating", "setting": "redroot pigweed; [9]", "result": 60}, {"measurement": "Pigweed plant response rating", "setting": "redroot pigweed; [10]", "result": 80}, {"measurement": "Pigweed plant response rating", "setting": "redroot pigweed; [11]", "result": 100}, {"measurement": "Plant response rating, Pigweed", "setting": "redroot pigweed; [12]", "result": 100}, {"measurement": "Corn plant response rating", "setting": "corn; [9]", "result": 0}, {"measurement": "Corn plant response rating", "setting": "corn; [10]", "result": 30}, {"measurement": "Corn plant response rating", "setting": "corn; [11]", "result": 0}, {"measurement": "Plant response rating, Corn", "setting": "corn; [12]", "result": 0}, {"measurement": "Bermudagrass plant response rating", "setting": "bermudagrass; 62 g ai/ha, Preemergence, scale 0 to 100 (0 no effect, 100 complete control)", "result": 100}, {"measurement": "Bermudagrass plant response rating", "setting": "bermudagrass; [13]", "result": 100}, {"measurement": "Plant response rating, Bermudagrass", "setting": "bermudagrass; [14]", "result": 90}, {"measurement": "Bermudagrass plant response rating", "setting": "bermudagrass; [15]", "result": 100}, {"measurement": "Wheat plant response rating", "setting": "wheat; [9]", "result": 40}, {"measurement": "Wheat plant response rating", "setting": "wheat; [10]", "result": 50}, {"measurement": "Wheat plant response rating", "setting": "wheat; [11]", "result": 30}, {"measurement": "Plant response rating, Wheat", "setting": "wheat; [12]", "result": 50}, {"measurement": "Plant response rating, Ducksalad", "setting": "duck salad; [5]", "result": 60}, {"measurement": "Plant response rating, Ducksalad", "setting": "duck salad; [6]", "result": 60}, {"measurement": "Plant response rating, Ducksalad", "setting": "duck salad; [7]", "result": 85}, {"measurement": "Plant response rating, Ducksalad", "setting": "duck salad; [8]", "result": 95}, {"measurement": "Foxtail, Giant plant response rating", "setting": "giant foxtail [1]; [16]", "result": 60}, {"measurement": "Foxtail, Giant plant response rating", "setting": "giant foxtail [1]; [13]", "result": 75}, {"measurement": "Plant response rating, Foxtail, Giant", "setting": "giant foxtail [1]; [14]", "result": 40}, {"measurement": "Foxtail, Giant plant response rating", "setting": "giant foxtail [1]; [15]", "result": 98}, {"measurement": "Velvetleaf plant response rating", "setting": "velvetleaf [2]; [16]", "result": 100}, {"measurement": "Velvetleaf plant response rating", "setting": "velvetleaf [2]; [13]", "result": 100}, {"measurement": "Plant response rating, Velvetleaf", "setting": "velvetleaf [2]; [14]", "result": 55}, {"measurement": "Velvetleaf plant response rating", "setting": "velvetleaf [2]; [15]", "result": 100}, {"measurement": "Surinam Grass plant response rating", "setting": "Surinam grass; [16]", "result": 55}, {"measurement": "Surinam Grass plant response rating", "setting": "Surinam grass; [13]", "result": 100}, {"measurement": "Plant response rating, Surinam Grass", "setting": "Surinam grass; [14]", "result": 30}, {"measurement": "Surinam Grass plant response rating", "setting": "Surinam grass; [15]", "result": 100}, {"measurement": "Ragweed plant response rating", "setting": "common ragweed; [16]", "result": 0}, {"measurement": "Ragweed plant response rating", "setting": "common ragweed; [13]", "result": 50}, {"measurement": "Plant response rating, Ragweed", "setting": "common ragweed; [14]", "result": 0}, {"measurement": "Ragweed plant response rating", "setting": "common ragweed; [15]", "result": 85}, {"measurement": "Nightshade plant response rating", "setting": "eastern black nightshade; [16]", "result": 100}, {"measurement": "Nightshade plant response rating", "setting": "eastern black nightshade; [13]", "result": 100}, {"measurement": "Plant response rating, Nightshade", "setting": "eastern black nightshade; [14]", "result": 0}, {"measurement": "Nightshade plant response rating", "setting": "eastern black nightshade; [15]", "result": 100}, {"measurement": "Foxtail, Giant plant response rating", "setting": "giant foxtail [3]; [9]", "result": 50}, {"measurement": "Foxtail, Giant plant response rating", "setting": "giant foxtail [3]; [10]", "result": 80}, {"measurement": "Foxtail, Giant plant response rating", "setting": "giant foxtail [3]; [11]", "result": 100}, {"measurement": "Plant response rating, Foxtail, Giant", "setting": "giant foxtail [3]; [12]", "result": 100}, {"measurement": "Johnsongrass plant response rating", "setting": "johnsongrass; [16]", "result": 90}, {"measurement": "Johnsongrass plant response rating", "setting": "johnsongrass; [13]", "result": 100}, {"measurement": "Plant response rating, Johnsongrass", "setting": "johnsongrass; [14]", "result": 50}, {"measurement": "Johnsongrass plant response rating", "setting": "johnsongrass; [15]", "result": 100}, {"measurement": "Lambsquarters plant response rating", "setting": "lambsquarters; [16]", "result": 100}, {"measurement": "Lambsquarters plant response rating", "setting": "lambsquarters; [13]", "result": 100}, {"measurement": "Plant response rating, Lambsquarters", "setting": "lambsquarters; [14]", "result": 100}, {"measurement": "Lambsquarters plant response rating", "setting": "lambsquarters; [15]", "result": 100}, {"measurement": "Plant response rating, Barnyardgrass", "setting": "barnyardgrass; [5]", "result": 0}, {"measurement": "Plant response rating, Barnyardgrass", "setting": "barnyardgrass; [6]", "result": 0}, {"measurement": "Plant response rating, Barnyardgrass", "setting": "barnyardgrass; [7]", "result": 20}, {"measurement": "Plant response rating, Barnyardgrass", "setting": "barnyardgrass; [8]", "result": 40}, {"measurement": "Oat, Wild plant response rating", "setting": "wild oat; [16]", "result": 45}, {"measurement": "Oat, Wild plant response rating", "setting": "wild oat; [13]", "result": 80}, {"measurement": "Plant response rating, Oat, Wild", "setting": "wild oat; [14]", "result": 10}, {"measurement": "Oat, Wild plant response rating", "setting": "wild oat; [15]", "result": 90}, {"measurement": "Velvetleaf plant response rating", "setting": "velvetleaf [4]; [9]", "result": 50}, {"measurement": "Velvetleaf plant response rating", "setting": "velvetleaf [4]; [10]", "result": 60}, {"measurement": "Velvetleaf plant response rating", "setting": "velvetleaf [4]; [11]", "result": 30}, {"measurement": "Plant response rating, Velvetleaf", "setting": "velvetleaf [4]; [12]", "result": 90}, {"measurement": "Goosegrass plant response rating", "setting": "Goosegrass; [16]", "result": 100}, {"measurement": "Goosegrass plant response rating", "setting": "Goosegrass; [13]", "result": 100}, {"measurement": "Plant response rating, Goosegrass", "setting": "Goosegrass; [14]", "result": 80}, {"measurement": "Goosegrass plant response rating", "setting": "Goosegrass; [15]", "result": 100}]}
